Assay [1] concerns the target T1, flag-tagged human GST-Omega-2 (Homo sapiens, UniProt Q9H4Y5).
T1 sequence (Q9H4Y5 1-242 limits assumed): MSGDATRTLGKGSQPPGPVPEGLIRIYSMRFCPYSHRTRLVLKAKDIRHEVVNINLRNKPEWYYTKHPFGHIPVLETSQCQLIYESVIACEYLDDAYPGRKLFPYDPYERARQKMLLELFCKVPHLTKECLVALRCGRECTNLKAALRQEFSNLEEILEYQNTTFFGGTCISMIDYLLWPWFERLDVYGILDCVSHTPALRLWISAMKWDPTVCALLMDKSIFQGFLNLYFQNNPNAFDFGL
The assay can be described thus: Labeling of GST-Omega-2 by [14C]Compound 2 in infected SF9 cells, SDS/PAGE autoradiography. In kind it is binding. Also noted: expressed in transfected cells; host or cells: SF9 insect cells, baculovirus infection (pFASTBAC-flag shuttle vector). To be noted: 60 min. On the procedure: (§1) Insect cells (SF9) were infected with a baculovirus construct encoding flag-tagged human GST-Omega-2 (see Example 5) and seeded into individual 10 cm dishes. For comparison, SF9 cells also were infected with a baculovirus construct encoding IKK[…] (I-κB kinase-γ/NF-κB essential modulator (NEMO)). After 48 hr of infection, media were removed and replaced with fresh medium (6 ml) containing from 0.01 to 10 μM of [^14C]Compound 2. Cells were incubated with the radiolabeled diarylsulfonylurea for 60 min (at room temperature) and then collected by centrifugation and washed to remove unbound test agent. Each cell pellet then was suspended in 5 ml of PBS and divided into 2 fractions. Cells within one of these fractions (⅕ of the total) were collected by centrifugation and suspended in 150 µl of SDS/PAGE disaggregation buffer. Cells within the other fraction (⅘ of the total) were collected by centrifugation, solubilized by detergent extraction, and recombinant GST-Omega-2 was recovered by immunoprecipitation with the anti-Flag M2 antibody. Both the total cell lysates and the immunoprecipitates were fractionated by SDS/PAGE and the dried gels were analyzed by autoradiography.

The target in assay [2] is T2, flag-tagged murine GST-Omega-2 (Mus musculus, UniProt Q8K2Q2).
T2 construct: expressed in transfected cells; host or cells: SF9 insect cells, baculovirus infection (pFASTBAC-flag shuttle vector)
T2 sequence (Q8K2Q2 1-248): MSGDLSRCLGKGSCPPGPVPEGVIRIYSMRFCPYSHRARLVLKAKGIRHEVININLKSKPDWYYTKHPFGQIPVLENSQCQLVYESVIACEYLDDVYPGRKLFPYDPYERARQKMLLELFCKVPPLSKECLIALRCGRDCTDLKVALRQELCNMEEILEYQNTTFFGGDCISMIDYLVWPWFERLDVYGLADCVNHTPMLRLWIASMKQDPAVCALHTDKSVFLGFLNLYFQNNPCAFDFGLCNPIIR
The assay can be described thus: Labeling of murine GST-Omega-2 by [14C]Compound 2 in infected SF9 cells, SDS/PAGE autoradiography. In kind it is binding. To be noted: 60 min. Here is the method: as §1, with “murine” for “human”, “(IkappaB kinase gamma).” for “(I-κB kinase-γ/NF-κB essential modulator (NEMO)).”, “μM” for “μM of”

Assay [3] addresses T1, flag-tagged human GST-Omega-2. The assay can be described thus: Competitive binding assay: incorporation of [14C]Compound 2 into GST-Omega-2 in infected SF9 cells. The arrangement: expressed in transfected cells; host or cells: SF9 insect cells, baculovirus infection (pFASTBAC-flag shuttle vector). Conditions: 30 min preincubation, then 2 µM [14C]Compound 2 for 60 min, relative to control cultures. On the procedure: Insect cells (SF9) were infected with a baculovirus construct encoding flag-tagged human GST-Omega-2 (see Example 5) and seeded into individual 10 cm dishes. After 48 hr of infection, media were removed and replaced with fresh medium (6 ml) containing 100, 200 or 400 μM Compound 4, 10 μM Compound 2, or neither compound. The cultures were incubated for 30 min at room temperature after which 2 µM [^14C]Compound 2 was introduced and the cultures were incubated for 60 min at room temperature. The cells then were harvested by centrifugation, washed with PBS to remove unbound radioactivity, and solubilized by detergent extraction. GST-Omega-2 was recovered by immunoprecipitation with anti-Flag M2 antibody, and the resulting immunoprecipitates were fractionated by SDS/PAGE; the dried gel subsequently was analyzed by phosphorimager analysis.

Assay [4] shares this target. The experiment in a line: Diarylsulfonylurea (Compound 2) affinity column binding of GST-Omega-2 from HEK293 lysate, Western detection. The arrangement: expressed in transfected cells. To be noted: 5 mM in buffer; Western blot of column fractions. From the text: Human embryonic kidney (HEK293) cells were transfected with a pcDNA3.1 mammalian expression vector encoding FLAG-tagged human GST-Omega-2. Stable transfectants isolated by growth in the presence of G418 were subcloned and a high expressing colony was identified. Four confluent 10 cm dishes of this cell line were established after which the cells were harvested and then disrupted by nitrogen cavitation. The resulting cell lysate was clarified by centrifugation and the supernatant fraction was recovered and applied to an affinity column (1 ml) composed of 1-(1,2,3,5,6,7-Hexahydro-s-indacen-4-yl)-3-[2-fluoro-5-oxiranylbenzenesulfonyl]-urea (hereinafter referred to as Compound 2 as per U.S. Patent Publication 2002-0034764) attached to Thiolpropyl-Sepharose. Compound 2 is a diarylsulfonylurea that contains an epoxide group which can react to form a covalent linkage with Thiolpropyl-Sepharose. In some cases, the cell extract was applied to the column in a buffer containing 5 mM of a competitive inhibitor, 1-(1,2,3,5,6,7-Hexahydro-s-indacen-4-yl)-3-[4-(1-hydroxy-1-methylethyl)-furan-2-sulfonyl]-urea (hereinafter referred to as Compound 4 as per the '372 application). The column was washed with buffer then eluted with a denaturing detergent, sodium dodecyl sulfate (SDS). Individual 1 ml fractions were collected and aliquots of each were fractionated by SDS/PAGE. […]
(In general: A western blot detects proteins with antibodies after separation by electrophoresis.)

Where [5] appears, read: 1 µM, room temperature, versus IKK-expressing control cells.
The mark [6] stands for this setting: 10 µM (highest test concentration), control and GST-Omega-2-expressing cells.

Take `O=C(Nc1c2c(cc3c1CCC3)CCC2)NS(=O)(=O)c1cc(C2CO2)ccc1F` (centres unmarked) [[^14C]Compound 2]: the “polypeptides labeled in infected cells” value is “only the polypeptide migrating as GST-Omega-2 appeared labeled” in assay [1] (setting [5]), “appeared to incorporate into several polypeptides” in assay [1] (setting [6]), “only the polypeptide migrating as GST-Omega-2 appeared labeled” in assay [2] (setting [5]) and “appeared to incorporate into several polypeptides” in assay [2] (setting [6]). Moreover, the “incorporation of radioactivity into anti-flag immunoprecipitated GST-Omega-2” value in assay [1] (0.01 to 10 μM) and in assay [2] (0.01 to 10 μM) was “dose-dependent increase in the incorporation of radioactivity into the immunoprecipitated protein” each time.
Regarding `O=C(Nc1c2c(cc3c1CCC3)CCC2)NS(=O)(=O)c1cc(C2CO2)ccc1F` (centres unmarked) [Compound 2, 1-(1,2,3,5,6,7-Hexahydro-s-indacen-4-yl)-3-[2-fluoro-5-oxiranylbenzenesulfonyl]-urea], the “inhibition of incorporation of [14C]Compound 2 into GST-Omega-2” value in assay [3] (10 µM unlabeled compound) came out at 90%.
For `CC(C)(O)c1coc(S(=O)(=O)NC(=O)Nc2c3c(cc4c2CCC4)CCC3)c1` [Compound 4, 1-(1,2,3,5,6,7-Hexahydro-s-indacen-4-yl)-3-[4-(1-hydroxy-1-methylethyl)-furan-2-sulfonyl]-urea], the “inhibition of incorporation of [14C]Compound 2 into GST-Omega-2” value in assay [3] (100 µM test compound) turned out to be 63%; in assay [3] (200 µM test compound) it was 73%; in assay [3] (400 µM test compound) it was 84%. The “competition with binding of GST-Omega-2 to the diarylsulfonylurea affinity column” value in assay [4] is “competed with the specific binding of GST-Omega-2 to the diarylsulfonylurea affinity column”.

The record behind these values is patent US20050064519A1, “Methods of using GST-Omega-2” (Pfizer Inc., priority 2003, published 2005).
